System: IgE antibody present in the serum of a shrimp-allergic patient
Experiment: Epitope mapping (1): array of overlapping 15-amino-acid peptides, chemiluminescence
Format: binding, human
Conditions: 15-amino-acid peptide array; serum of 37 patients; difference from N2nd value of 5 non-shrimp-allergic subjects at least 35,000
Experimental: Epitope mapping was carried out using a library of overlapping peptides (length: 15 amino acids) corresponding to the amino acid sequences identified as allergy components of shrimp and the amino acid sequence of arginine kinase. Specifically, the library of overlapping peptides was prepared on the basis of the amino acid sequences of SEQ ID NOs: 117, 141, 146, 2, 45, 87, 276, 161, 230, 179, 362, 381, 399, 421, 455, 481, 486, 520, 541, 300 and 306, and arginine kinase.
The peptides to be synthesized were shifted by 10 amino acids.
For preparation of peptide arrays, the Intavis CelluSpots™ technique was used. Specifically, the peptide arrays were prepared by the following procedure: (1) synthesizing peptides of interest on amino-modified cellulose disks using an automated chemical synthesis apparatus (Intavis MultiPep RS), (2) dissolving the amino-modified cellulose disks to obtain a cellulose-bound peptide solution, and (3) spotting the cellulose-bound peptides onto coated glass slides. The details of each procedure are as described below.
Peptide synthesis was carried out in incremental steps through 9-fluorenylmethoxycarbonyl (Fmoc) chemical reaction on amino-modified cellulose disks in 384-well synthesis plates. Specifically, amino acids in which a Fmoc group is bonded to an amino group were activated in a solution of N,N′-diisopropylcarbodiimide (DIC) and 1-hydroxybenzotriazole (HOBt) in dimethylformamide (DMF) and added dropwise to the cellulose disks so that the Fmoc group-bound amino acids were bound to the amino groups on the cellulose disks (coupling). Unreacted amino groups were capped with acetic anhydride and washed with DMF. Furthermore, the Fmoc groups were eliminated from the amino groups of the amino acids bound to the amino groups on the cellulose disks by treatment with piperidine and washing with DMF. The amino acids bound to the amino groups on the cellulose disks were repetitively subjected to the coupling, the capping, and the Fmoc group elimination described above to elongate the amino terminus for peptide synthesis.
The peptides-bound cellulose disks of interest obtained above in the subsection titled “(1) Synthesis of peptide” were transferred to 96-well plates and treated with a side chain deprotection mixed solution of trifluoroacetic acid (TFA), dichloromethane, triisopropylsilane (TIPS), and water for deprotection of amino acid side chains. Then, the deprotected cellulose-bound peptides were dissolved in a mixed solution of TFA, trifluoromethanesulfonic acid (TFMSA), TIPS, and water and precipitated in tetrabutyl methyl ether (TBME), and the precipitate was resuspended in dimethyl sulfoxide (DMSO) and mixed with a mixed solution of NaCl, sodium citrate, and water to obtain a peptide solution for slide spotting.
The peptide solution for slide spotting obtained above in the subsection titled “(2) Dissolution of amino-modified cellulose disk” was spotted onto Intavis CelluSpots™ slides using Intavis Slide Spotting Robot, and the slides were dried to prepare peptide arrays.
The presence or absence of binding, to each peptide fragment, of an IgE antibody present in the serum of a shrimp-allergic patient was measured through antigen-antibody reaction using the peptide arrays. […]

| Substance | Peptide bound to an IgE antibody in serum in a patient-specific manner |
| --- | --- |
| E3: common 15-residue IgE-binding epitope sequence of polypeptide (E3), myosin heavy chain type 1-derived (GYKDQLANLMKTLNA; VAR_SEQ 1..15 epitope) [Epitope E3] | bound to an IgE antibody in serum in a patient-specific manner |
| E8: common 15-residue IgE-binding epitope sequence of polypeptide (E8), myosin heavy chain type 2-derived (LEEADNQINQLNNLK; VAR_SEQ 1..15 epitope) [Epitope E8] | bound to an IgE antibody in serum in a patient-specific manner |
| E28: common 15-residue IgE-binding epitope sequence of polypeptide (E28), myosin heavy chain type 1-derived (RGYHIFYQLMCDQID; VAR_SEQ 1..15 epitope) [Epitope E28] | bound to an IgE antibody in serum in a patient-specific manner |
| E5: common 15-residue IgE-binding epitope sequence of polypeptide (E5), myosin heavy chain type 2-derived (GTMEELRDERLAKII; VAR_SEQ 1..15 epitope) [Epitope E5] | bound to an IgE antibody in serum in a patient-specific manner |
| E1: common 15-residue IgE-binding epitope sequence of polypeptide (E1), myosin heavy chain type 1-derived (ADIEVYLLEKARVIS; VAR_SEQ 1..15 epitope) [Epitope E1] | bound to an IgE antibody in serum in a patient-specific manner |
| E31: common 15-residue IgE-binding epitope sequence of polypeptide (E31), myosin heavy chain type 1-derived (ESRGRATLLGKFRNL; VAR_SEQ 1..15 epitope) [Epitope E31] | bound to an IgE antibody in serum in a patient-specific manner |
| E47: common 15-residue IgE-binding epitope sequence of polypeptide (E47), phosphopyruvate hydratase-derived (HLKAVIKGRFGLDAT; VAR_SEQ 1..15 epitope) [Epitope E47] | bound to an IgE antibody in serum in a patient-specific manner |
| E43: common 15-residue IgE-binding epitope sequence of polypeptide (E43), myosin heavy chain type 1-derived (EIDKRIQEKEEEFDA; VAR_SEQ 1..15 epitope) [Epitope E43] | bound to an IgE antibody in serum in a patient-specific manner |
| E40: common 15-residue IgE-binding epitope sequence of polypeptide (E40), myosin heavy chain type 1-derived (EISHQDEIINKVNKE; VAR_SEQ 1..15 epitope) [Epitope E40] | bound to an IgE antibody in serum in a patient-specific manner |
| E48: common 15-residue IgE-binding epitope sequence of polypeptide (E48), troponin I-derived (EEIDRKKAEVRKRLE; VAR_SEQ 1..15 epitope) [Epitope E48] | bound to an IgE antibody in serum in a patient-specific manner |
| E49: common 15-residue IgE-binding epitope sequence of polypeptide (E49), troponin I-derived (RKKKLRLLLRKKAAE; VAR_SEQ 1..15 epitope) [Epitope E49] | bound to an IgE antibody in serum in a patient-specific manner |
| E37: common 15-residue IgE-binding epitope sequence of polypeptide (E37), myosin heavy chain type 1-derived (IMHQLTCNGVLEGIR; VAR_SEQ 1..15 epitope) [Epitope E37] | bound to an IgE antibody in serum in a patient-specific manner |
| E36: common 15-residue IgE-binding epitope sequence of polypeptide (E36), myosin heavy chain type 1-derived (GNMKFKQRGREEQAE; VAR_SEQ 1..15 epitope) [Epitope E36] | bound to an IgE antibody in serum in a patient-specific manner |
| E19: common 15-residue IgE-binding epitope sequence of polypeptide (E19), mitochondrial ATP synthase subunit alpha precursor-derived (VLSIGDGIARVYGLK; VAR_SEQ 1..15 epitope) [Epitope E19] | bound to an IgE antibody in serum in a patient-specific manner |
| E10: common 15-residue IgE-binding epitope sequence of polypeptide (E10), myosin heavy chain type 2-derived (HFRIKAVYEENLEHL; VAR_SEQ 1..15 epitope) [Epitope E10] | bound to an IgE antibody in serum in a patient-specific manner |
| E35: common 15-residue IgE-binding epitope sequence of polypeptide (E35), myosin heavy chain type 1-derived (ERGYHIFYQMMSDQV; VAR_SEQ 1..15 epitope) [Epitope E35] | bound to an IgE antibody in serum in a patient-specific manner |
| E44: common 15-residue IgE-binding epitope sequence of polypeptide (E44), hemocyanin subunit L1-derived (VRIFAWPHLDNNGIK; VAR_SEQ 1..15 epitope) [Epitope E44] | bound to an IgE antibody in serum in a patient-specific manner |
| E15: common 15-residue IgE-binding epitope sequence of polypeptide (E15), hemocyanin subunit L1-derived (LIPKGNEQGLEFDLV; VAR_SEQ 1..15 epitope) [Epitope E15] | bound to an IgE antibody in serum in a patient-specific manner |
| E26: common 15-residue IgE-binding epitope sequence of polypeptide (E26), myosin heavy chain type 1-derived (PDPDPTEYLFISREQ; VAR_SEQ 1..15 epitope) [Epitope E26] | bound to an IgE antibody in serum in a patient-specific manner |
| E16: common 15-residue IgE-binding epitope sequence of polypeptide (E16), pyruvate kinase 3-derived (NVRKAAQKYSDKIGH; VAR_SEQ 1..15 epitope) [Epitope E16] | bound to an IgE antibody in serum in a patient-specific manner |
| E32: common 15-residue IgE-binding epitope sequence of polypeptide (E32), myosin heavy chain type 1-derived (INELEIALDHANKAN; VAR_SEQ 1..15 epitope) [Epitope E32] | bound to an IgE antibody in serum in a patient-specific manner |
| E18: common 15-residue IgE-binding epitope sequence of polypeptide (E18), phosphopyruvate hydratase-derived (NKLAMQEFMILPTGA; VAR_SEQ 1..15 epitope) [Epitope E18] | bound to an IgE antibody in serum in a patient-specific manner |
| E9: common 15-residue IgE-binding epitope sequence of polypeptide (E9), myosin heavy chain type 2-derived (DQLATELDASQKECR; VAR_SEQ 1..15 epitope) [Epitope E9] | bound to an IgE antibody in serum in a patient-specific manner |
| E2: common 15-residue IgE-binding epitope sequence of polypeptide (E2), myosin heavy chain type 1-derived (ARVISQSPAERGYHI; VAR_SEQ 1..15 epitope) [Epitope E2] | bound to an IgE antibody in serum in a patient-specific manner |

— patent publication US20260263593A1, “ALLERGY ANTIGEN AND EPITOPE THEREOF” (HOYU CO., LTD., priority 2018, published 2026)
